Results taken from patent publication US11059794B2, “Heterocyclic compounds useful as dual ATX/CA inhibitors” (Hoffmann-La Roche Inc., priority 2017, dated 2021).

Experiments:
ATX (human His-tagged) = ATX (human His-tagged) (Homo sapiens (Human), UniProt Q13822); assay: Human ATX enzyme inhibition assay (fluorescence quenching, MR121 substrate); assay type: biochemical; conditions: 30 nM ATX, 1 μM MR121 substrate, 30° C.
[1] = target: Human carbonic anhydrase II (hCA-II) (Homo sapiens (Human), UniProt P00918); assay: Human carbonic anhydrase-II inhibition assay (absorbance, 4-nitrophenyl acetate substrate); assay type: biochemical; conditions: 8 nM hCA II, 2.5 mM 4-NPA, absorbance 340 nm, 1 hour room temperature; read-out: CA-II IC50

Structure (SMILES) | IC50 (ATX (human His-tagged)) [nM] | IC50 [1] [nM]
Cc1nnn(Cc2cc(OC(F)F)ccc2CCC(=O)N2CCC(CC[S+]([O-])c3ncc(S(N)(=O)=O)s3)CC2)n1 (stereo not shown) [Example 6.44, 2-[2-[1-[3-[4-(difluoromethoxy)-2-[(5-methyltetrazol-2-yl)methyl]phenyl]propanoyl]piperidin-4-yl]ethylsulfinyl]-1,3-thiazole-5-sulfonamide] | 7 | –
NS(=O)(=O)c1ccc(CN2CCN(C(=O)c3cc(OCC4CCOCC4)nc(C4CC4)c3)CC2)c(F)c1 [Example 2.02, 4-[[4-[2-cyclopropyl-6-(oxan-4-ylmethoxy)pyridine-4-carbonyl]piperazin-1-yl]methyl]-3-fluorobenzenesulfonamide] | 7 | 15.5
Cc1nnn(Cc2cc(C(F)(F)F)ccc2CCC(=O)N2CCN(Cc3ccc(S(N)(=O)=O)cc3)CC2)n1 [Example 9.00, 4-[[4-[3-[2-[(5-Methyltetrazol-2-yl)methyl]-4-(trifluoromethyl)phenyl]propanoyl]piperazin-1-yl]methyl]benzenesulfonamide] | 27 | –
Cc1nnn(Cc2cc(OC(F)F)ccc2CCC(=O)N2CCC(CC[S+]([O-])c3ccc(S(N)(=O)=O)c(F)c3F)CC2)n1 (stereo not shown) [Example 6.42, 4-[2-[1-[3-[4-(difluoromethoxy)-2-[(5-methyltetrazol-2-yl)methyl]phenyl]propanoyl]piperidin-4-yl]ethylsulfinyl]-2,3-difluorobenzenesulfonamide] | 3 | –
Cc1nnn(Cc2cc(C(F)(F)F)ccc2COC(=O)N2CCC(S(=O)(=O)c3ccc(S(N)(=O)=O)cc3F)CC2)n1 [Example 1.04, [2-[(5-methyltetrazol-2-yl)methyl]-4-(trifluoromethyl)phenyl]methyl 4-(2-fluoro-4-sulfamoylphenyl)sulfonylpiperidine-1-carboxylate] | 8 | –
Cc1nnn(Cc2cc(Cl)cnc2COC(=O)N2CCC(S(=O)(=O)c3ccc(S(N)(=O)=O)cc3F)CC2)n1 [Example 1.03, [5-chloro-3-[(5-methyltetrazol-2-yl)methyl]pyridin-2-yl]methyl 4-(2-fluoro-4-sulfamoylphenyl)sulfonylpiperidine-1-carboxylate] | 73 | –
Cc1nnn(Cc2cc(C(F)(F)F)ccc2CCC(=O)N2CCC(CC[S+]([O-])c3ncc(S(N)(=O)=O)s3)CC2)n1 (stereo not shown) [Example 6.06, 2-[2-[1-[3-[2-[(5-methyltetrazol-2-yl)methyl]-4-(trifluoromethyl)phenyl]propanoyl]piperidin-4-yl]ethylsulfinyl]-1,3-thiazole-5-sulfonamide] | 4 | 14
Cc1nnn(Cc2cc(C(F)(F)F)ccc2CCC(=O)N2CCC(CC[S+]([O-])c3ccc(S(N)(=O)=O)c(F)c3F)CC2)n1 (stereo not shown) [Example 6.43, 2,3-difluoro-4-[2-[1-[3-[2-[(5-methyltetrazol-2-yl)methyl]-4-(trifluoromethyl)phenyl]propanoyl]piperidin-4-yl]ethylsulfinyl]benzenesulfonamide] | 6 | –
